Results from PubChem BioAssay (NCI).
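1) Cells in 96-well plates. 2) Compound, 48 h, 5 concentrations. 3) Linear interpolation between surrounding doses. 4) Unreached endpoint = highest concentration. GI50: concentration for 50% inhibition of growth. TGI marks complete inhibition of growth.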

Columns and labels:
Assay in all cases: growth of human tumour cells (NCI), 48 h
HCT-116 colon = tested on: HCT-116 colon
MDA-MB-468 breast = tested on: MDA-MB-468 breast
A498 renal = tested on: A498 renal
SW-620 colon = tested on: SW-620 colon
UACC-62 melanoma = tested on: UACC-62 melanoma
M14 melanoma = tested on: M14 melanoma
NCI-H23 lung = tested on: NCI-H23 lung
K-562 leukemia = tested on: K-562 leukemia
DU-145 prostate = tested on: DU-145 prostate
NCI/ADR-RES ovarian = tested on: NCI/ADR-RES ovarian
HCC-2998 colon = tested on: HCC-2998 colon
MDA-MB-231 breast = tested on: MDA-MB-231 breast
SR leukemia = tested on: SR leukemia
HCT-15 colon = tested on: HCT-15 colon
T-47D breast = tested on: T-47D breast
SK-MEL-5 melanoma = tested on: SK-MEL-5 melanoma
CCRF-CEM leukemia = tested on: CCRF-CEM leukemia
SNB-75 CNS = tested on: SNB-75 CNS
MOLT-4 leukemia = tested on: MOLT-4 leukemia
COLO 205 colon = tested on: COLO 205 colon
HOP-62 NSCLC = tested on: HOP-62 NSCLC
SK-MEL-2 melanoma = tested on: SK-MEL-2 melanoma
NCI-H522 lung = tested on: NCI-H522 lung
MCF7 breast = tested on: MCF7 breast
UO-31 renal = tested on: UO-31 renal
OVCAR-8 ovarian = tested on: OVCAR-8 ovarian
MALME-3M melanoma = tested on: MALME-3M melanoma
SF-268 CNS = tested on: SF-268 CNS
NCI-H226 lung = tested on: NCI-H226 lung
NCI-H460 lung = tested on: NCI-H460 lung
HS 578T breast = tested on: HS 578T breast
U251 CNS = tested on: U251 CNS
TK-10 renal = tested on: TK-10 renal
PC-3 prostate = tested on: PC-3 prostate
SNB-19 CNS = tested on: SNB-19 CNS
HT29 colon = tested on: HT29 colon
SK-OV-3 ovarian = tested on: SK-OV-3 ovarian
UACC-257 melanoma = tested on: UACC-257 melanoma
MDA-MB-435 = tested on: MDA-MB-435
SF-295 CNS = tested on: SF-295 CNS
SF-539 CNS = tested on: SF-539 CNS
KM12 colon = tested on: KM12 colon
LOX IMVI melanoma = tested on: LOX IMVI melanoma
HL-60(TB) leukemia = tested on: HL-60(TB) leukemia
CAKI-1 renal = tested on: CAKI-1 renal
OVCAR-3 ovarian = tested on: OVCAR-3 ovarian
A549 NSCLC = tested on: A549 NSCLC
EKVX NSCLC = tested on: EKVX NSCLC
ACHN renal = tested on: ACHN renal
OVCAR-4 ovarian = tested on: OVCAR-4 ovarian
786-0 renal = tested on: 786-0 renal
HOP-92 NSCLC = tested on: HOP-92 NSCLC
OVCAR-5 ovarian = tested on: OVCAR-5 ovarian
RXF 393 renal = tested on: RXF 393 renal
IGROV1 ovarian = tested on: IGROV1 ovarian
SN12C renal = tested on: SN12C renal
BT-549 breast = tested on: BT-549 breast
SK-MEL-28 melanoma = tested on: SK-MEL-28 melanoma

In the case of `COc1ccc(/C=C/C(=O)c2ccc(S(=O)(=O)NCCNc3nc(Nc4ccc(F)cc4)nc(N(C)C)n3)cc2)cc1`, the GI50 (HCT-116 colon) is reported as 1.86 µM, the TGI (HCT-116 colon) is reported as 3.62 µM and the GI50 (MDA-MB-468 breast) is reported as 2.57 µM. It also gave a TGI (MDA-MB-468 breast) of 10.3 µM, a GI50 (A498 renal) of 10 µM and a TGI (A498 renal) of 29.7 µM. The GI50 (SW-620 colon) was 5.42 µM, the TGI (SW-620 colon) was 19.7 µM and the GI50 (UACC-62 melanoma) was 4.79 µM. It also gave a TGI (UACC-62 melanoma) of 19.3 µM, a GI50 (M14 melanoma) of 4.27 µM and a TGI (M14 melanoma) of 19.2 µM. It also gave a GI50 (NCI-H23 lung) of 10.4 µM, a TGI (NCI-H23 lung) of 50.5 µM and a GI50 (K-562 leukemia) of 3.99 µM. It also gave a TGI (K-562 leukemia) greater than 100 µM, a GI50 (DU-145 prostate) of 7.54 µM and a TGI (DU-145 prostate) greater than 100 µM. It also gave a GI50 (NCI/ADR-RES ovarian) of 5.66 µM, a TGI (NCI/ADR-RES ovarian) of 35.5 µM and a GI50 (HCC-2998 colon) of 5.47 µM. For the same molecule, the TGI (HCC-2998 colon) was 18 µM, the GI50 (MDA-MB-231 breast) was 2.73 µM and the TGI (MDA-MB-231 breast) was 10.5 µM. It also gave a GI50 (SR leukemia) of 2.97 µM, a TGI (SR leukemia) of 13.2 µM and a GI50 (HCT-15 colon) of 2.71 µM. The TGI (HCT-15 colon) was 7.07 µM, the GI50 (T-47D breast) was 3.78 µM and the TGI (T-47D breast) was 89.8 µM. It also gave a GI50 (SK-MEL-5 melanoma) of 3.5 µM, a TGI (SK-MEL-5 melanoma) of 13.2 µM and a GI50 (CCRF-CEM leukemia) of 4.09 µM. For the same molecule, the TGI (CCRF-CEM leukemia) was greater than 100 µM, the GI50 (SNB-75 CNS) was 3.57 µM and the TGI (SNB-75 CNS) was greater than 100 µM. It also gave a GI50 (MOLT-4 leukemia) of 3.12 µM, a TGI (MOLT-4 leukemia) of 13.2 µM and a GI50 (COLO 205 colon) of 3.46 µM. For the same molecule, the TGI (COLO 205 colon) was 14.3 µM, the GI50 (HOP-62 NSCLC) was 17.1 µM and the TGI (HOP-62 NSCLC) was greater than 100 µM. It also gave a GI50 (SK-MEL-2 melanoma) of 8.1 µM, a TGI (SK-MEL-2 melanoma) of 22.3 µM and a GI50 (NCI-H522 lung) of 2.55 µM. The TGI (NCI-H522 lung) was 12.5 µM, the GI50 (MCF7 breast) was 1.93 µM and the TGI (MCF7 breast) was 5.85 µM. For the same molecule, the GI50 (UO-31 renal) was 3.78 µM, the TGI (UO-31 renal) was 99.4 µM and the GI50 (OVCAR-8 ovarian) was 9.51 µM. It also gave a TGI (OVCAR-8 ovarian) greater than 100 µM, a GI50 (MALME-3M melanoma) of 10.6 µM and a TGI (MALME-3M melanoma) of 43.9 µM. For the same molecule, the GI50 (SF-268 CNS) was 4.43 µM, the TGI (SF-268 CNS) was 55.8 µM and the GI50 (NCI-H226 lung) was 3.8 µM. For the same molecule, the TGI (NCI-H226 lung) was 20.4 µM, the GI50 (NCI-H460 lung) was 4.11 µM and the TGI (NCI-H460 lung) was 21.6 µM. The GI50 (HS 578T breast) was 4.68 µM, the TGI (HS 578T breast) was 44.8 µM and the GI50 (U251 CNS) was 6.7 µM. It also gave a TGI (U251 CNS) of 21.5 µM, a GI50 (TK-10 renal) of 8.09 µM and a TGI (TK-10 renal) greater than 100 µM. It also gave a GI50 (PC-3 prostate) of 3.5 µM, a TGI (PC-3 prostate) greater than 100 µM and a GI50 (SNB-19 CNS) of 5.58 µM. For the same molecule, the TGI (SNB-19 CNS) was 45.5 µM, the GI50 (HT29 colon) was 1.83 µM and the TGI (HT29 colon) was 3.73 µM. It also gave a GI50 (SK-OV-3 ovarian) of 13.9 µM, a TGI (SK-OV-3 ovarian) of 76.3 µM and a GI50 (UACC-257 melanoma) of 13.3 µM. For the same molecule, the TGI (UACC-257 melanoma) was 38.4 µM, the GI50 (MDA-MB-435) was 5.47 µM and the TGI (MDA-MB-435) was 23.4 µM. For the same molecule, the GI50 (SF-295 CNS) was 5.05 µM, the TGI (SF-295 CNS) was 18.7 µM and the GI50 (SF-539 CNS) was 10.3 µM. For the same molecule, the TGI (SF-539 CNS) was 23 µM, the GI50 (KM12 colon) was 4.01 µM and the TGI (KM12 colon) was 16.7 µM. For the same molecule, the GI50 (LOX IMVI melanoma) was 3.23 µM, the TGI (LOX IMVI melanoma) was 11.5 µM and the GI50 (HL-60(TB) leukemia) was 3.6 µM. It also gave a TGI (HL-60(TB) leukemia) of 31.5 µM, a GI50 (CAKI-1 renal) of 3.34 µM and a TGI (CAKI-1 renal) greater than 100 µM. It also gave a GI50 (OVCAR-3 ovarian) of 5.01 µM, a TGI (OVCAR-3 ovarian) of 19.9 µM and a GI50 (A549 NSCLC) of 6.54 µM. The TGI (A549 NSCLC) was greater than 100 µM, the GI50 (EKVX NSCLC) was 4.12 µM and the TGI (EKVX NSCLC) was 22.3 µM. For the same molecule, the GI50 (ACHN renal) was 3.4 µM, the TGI (ACHN renal) was greater than 100 µM and the GI50 (OVCAR-4 ovarian) was 4.12 µM. For the same molecule, the TGI (OVCAR-4 ovarian) was greater than 100 µM, the GI50 (786-0 renal) was 6.33 µM and the TGI (786-0 renal) was greater than 100 µM. The GI50 (HOP-92 NSCLC) was 3.25 µM, the TGI (HOP-92 NSCLC) was 31 µM and the GI50 (OVCAR-5 ovarian) was 8.44 µM. It also gave a TGI (OVCAR-5 ovarian) of 45.9 µM, a GI50 (RXF 393 renal) of 2.59 µM and a TGI (RXF 393 renal) of 12.3 µM. The GI50 (IGROV1 ovarian) was 10.8 µM, the TGI (IGROV1 ovarian) was 45.6 µM and the GI50 (SN12C renal) was 3.6 µM. It also gave a TGI (SN12C renal) of 13.3 µM, a GI50 (BT-549 breast) of 13.2 µM and a TGI (BT-549 breast) of 27.4 µM. For the same molecule, the GI50 (SK-MEL-28 melanoma) was 5.23 µM and the TGI (SK-MEL-28 melanoma) was 19 µM.
